# Assay results: US9574182B2, “Monoterpene glycosyltransferase originating from hop and method for using same” (SUNTORY HOLDINGS LIMITED, priority 2012, dated 2017)
# B1: HlUGT251: Humulus lupulus monoterpene glycosyltransferase, amino acid sequence SEQ ID NO: 8, expressed as HisTag fusion in E. coli (protein, listed as Humulus lupulus)
# chain: MGSISEMMKPHAVCVPFPAQGHVNPMMQLAKLLHSRGFHITYVNTEFNHRRLIRSRGPDSVKGLPDFQFETIPDGLPPSDRDATQEVPPLCDATRKNCLGPFKELLHKLRSCSEVPPVTCIITDGIMTFGIKAAREFGIPEVVFWTASACSFMGYLQYDELVRRGIVPFKDESFMLDGTLDTPIDWIPGIRDVRLRDLPSFLRVTSTDDIMFDFLGSQAKNCLTSSAIIFNTFRELELEVLDSISDMYPNIYTIGPLPMLNRHLPAESQVKSMSTSLWKEDSTCFQWLHKREPNSVVYVNYGSITTMTEDNFREFAWGLANSKHSFVWIVRPDVIMGSNSATVLPEEFFEEIKDRGLLANWCQQKEVLEHSSVGVFLTHCGWNSTVETVCAGVPVICWPFFADQQTNCHFACKTLGIGVEISPDVKREEVTGLVKEMMEGEKGEKMREKASYWKKKAAETTDIGGDSYHDFDKLIKSLGFDGRD
# modifications: His tag
# Assays:
# Format in all cases: biochemical, Humulus lupulus
# [1] = test system: HlUGT119; assay: Monoterpene glycosylation by recombinant HlUGT119 (UDP-glucose, LC-MS); conditions: 2 mM UDP-glucose, 0.2 mM sugar acceptor substrate, pH 7.5, 30° C., 1 hour
# Description: (§1) Next, these proteins were used to test their reactivity with monoterpenes by LC-MS analysis. Standard enzyme reaction conditions are as follows. A reaction solution (2 mM UDP-glucose, 0.2 mM sugar acceptor substrate, 100 mM potassium phosphate buffer (pH 7.5), 25 μl purified […] enzyme solution) was prepared in a volume of 50 μl with distilled water and reacted at 30° C. for 1 hour. The enzyme reaction solution (5 μl) was analyzed by LC-MS under the following conditions. LC Conditions Column: CAPCELL PAK C18-UG120 (2.0 mm I.D.×150 mm) Mobile phase: A: water (containing 0.05% formic acid), B: acetonitrile Gradient: linear concentration gradient of B from 15% to 90% over 15 minutes Flow rate: 0.2 ml per minute Column oven: 40° C. MS Conditions ESI (negative mode) SIM mode: (m/z 315, 338, 361, 363, 331, 354, 377, 429, etc.) The above LC-MS analysis was conducted for each of HlUGT119, HlUGT127, HlUGT279 and HlUGT251.
# [2] = test system: HlUGT127; assay: Monoterpene glycosylation by recombinant HlUGT127 (UDP-glucose, LC-MS); conditions: 2 mM UDP-glucose, 0.2 mM sugar acceptor substrate, pH 7.5, 30° C., 1 hour
# Description: as §1
# [3] = test system: HlUGT251; assay: Monoterpene glycosylation by recombinant HlUGT251 (UDP-glucose, LC-MS); conditions: for monoglycosylation activity of HlUGT251 on the monoterpene: 2 mM UDP-glucose, 0.2 mM sugar acceptor substrate, pH 7.5, 30° C., 1 hour, LC-MS
# Description: as §1
# [4] = test system: HlUGT279; assay: Monoterpene glycosylation by recombinant HlUGT279 (UDP-glucose, LC-MS); conditions: 2 mM UDP-glucose, 0.2 mM sugar acceptor substrate, pH 7.5, 30° C., 1 hour
# Description: as §1
"amount of product compared with the other three enzymes ([3]; same reaction conditions, ascribed to extremely lower amount of expressed protein)",Molecule,monoglycosylation activity of HlUGT119 on the monoterpene [1],monoglycosylation activity of HlUGT127 on the monoterpene [2],monoglycosylation activity of HlUGT251 on the monoterpene [3],monoglycosylation activity of HlUGT279 on the monoterpene [4]
,"CC(C)=CCC/C(C)=C/CO [geraniol, Geraniol]",monoglycosylation activity,monoglycosylation activity,monoglycosylation activity,monoglycosylation activity
,"C=CC(C)(O)CCC=C(C)C (stereo not drawn) [linalool, Linalool]",monoglycosylation activity,monoglycosylation activity,monoglycosylation activity,monoglycosylation activity
smaller amount of product,B1,,,,
